Measurements from PubChem BioAssay AID2060501 (Molecular Pharmacology Branch, DTP, NCI, 2025).

Test system: 282377-053-R-J1-PDC complex spheroids, viability
Test: Anticancer human tumor 282377-053-R-J1-PDC patient-derived colon adenocarcinoma cell line growth inhibition [GQUAD]
Details: for IC50: curve of first compound; for viability, T/C: stronger effect = lower value
Excerpt: DNA G-quadruplex Stabilizer Agents in Combinations in Complex Spheroids
A high-throughput screen of multi-cell type tumor spheroids was designed to identify active combinations of DNA G-quadruplex stabilizer agents and targeted small molecules. Complex spheroids include a stromal component modeled by human endothelial cells (HUVEC) and fibroblasts modeled by human mesenchymal stem cells (MSCs). The concentration ranges selected for each drug and investigational agent were based upon clinically achievable concentrations if the clinical Cmax of the agent was known.
Compounds. The drugs and investigational agents: pidnarulex (CX-5461; NSC782164), APTO-253 (NSC789042), BRACO-19 (NSC847499), peposertib (NSC802822), ceralasertib (NSC780249), elimusertib (NSC800525), camonsertib (NSC841442), AZD-1390 (NSC803789), olaparib (NSC753686), talazoparib (NSC767125), ART-558 (NSC835418), sotorasib (NSC818433), MRTX-1133 (NSC836407), SN-38 (NSC673596), topotecan (NSC609699), etoposide (NSC141540), doxorubicin (NSC123127), gemcitabine (NSC613327), 5-fluorouracil (NSC19893), paclitaxel (NSC125973), vemurafenib (NSC761431), panobinostat (NSC761190), R-306465 (JNJ-16241199; NSC773264), adavosertib (NSC754352), TP-3654 (NSC805149), carboplatin (NSC241240), KSQ-4279 (NSC840948), and staurosporine (NSC755774) were obtained from the National Cancer Institute (NCI) Developmental Therapeutics Program Chemical Repository (34). The FDA-approved anticancer drug set is available from the NCI Developmental Therapeutics Program. […] The stock solutions were prepared in dimethyl sulfoxide (DMSO, Sigma-Aldrich, St. Louis, MO, cat. D2650) at 800-fold the tested concentration and stored at -70 degrees C prior to their use. All drugs and investigational agents were tested over a range starting from a high concentration at or near the clinical Cmax and decreasing in half-log increments. If the clinical Cmax for an agent had not been determined, the highest concentration tested was 10 microM.
2.3 Cell Culture. All cells were maintained in an incubator at 37 degrees C and 5% CO2 with 95% humidity. The PDC lines were cultured according to standard operating procedures established by the NCI PDMR. All PDCs were thawed and cultured in Matrigel-coated flasks prepared with a working solution of 1X Ham's F-12 nutrient mix, without supplementation (Invitrogen, cat. 11765054), 100 U/mL penicillin-streptomycin (Invitrogen, cat. 15140122), and 2.5% Matrigel (Corning Inc., cat. 354248) for the first three passages. The 857933-349-R-J2-PDC line was cultured in 6C/Colon 1B media, which includes advanced DMEM/F-12 (Thermo Fisher Scientific, cat. 12634028), 10 mM HEPES (Thermo Fisher Scientific, cat. 15630080), 1X GlutaMAX supplement (Thermo Fisher Scientific, cat. 35050061), 0.1 mg/mL primocin (InvivoGen, cat. ant-pm-2), 10% defined fetal bovine serum, heat inactivated (HyClone Laboratories Inc., cat. SH30070.03HI), 50% L-WRN conditioned media (ATCC, cat. CRL-3276), 1.25 mM N-Acetyl-L-cysteine (Sigma-Aldrich, cat. A9165), 10 mM nicotinamide (Sigma-Aldrich, cat. N0636), 1X B-27 supplement (Thermo Fisher Scientific, cat. 17504044), 1X N-2 supplement (Thermo Fisher Scientific, cat. 17502048), 10 microM Y-27632 dihydrochloride (Tocris Bioscience, cat. 1254), and 50 ng/mL human EGF recombinant protein (Thermo Fisher Scientific, cat. PHG0311). The 485176-168-R4-J1-PDC line was cultured in Panc media, which includes all 6C/Colon 1B media components plus 100 ng/mL human FGF-10 (Thermo Fisher Scientific, cat. 100-26), 500 nM SB-431542 (Selleckchem, cat. S1067), and gastrin (Tocris, cat. 3006).
[…]

[1] = second compound 0.0316 µM, first compound 0.0316 µM
[2] = second compound 0.0316 µM, first compound 0.316 µM
[3] = second compound 0.1 µM, first compound 0.0316 µM
[4] = second compound 0.1 µM, first compound 0.316 µM
[5] = second compound 0.316 µM, first compound 0.0316 µM
[6] = second compound 0.316 µM, first compound 0.316 µM
[7] = second compound 1 µM, first compound 0.0316 µM
[8] = second compound 1 µM, first compound 0.316 µM
[9] = second compound 3.16 µM, first compound 0.0316 µM
[10] = second compound 3.16 µM, first compound 0.316 µM
[11] = second compound 10 µM, first compound 0.0316 µM
[12] = second compound 10 µM, first compound 0.316 µM
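Further: spheroids exposed to compounds for 7 days before readout.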
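Wherever viability, T/C is given: percent of vehicle DMSO control viability with 100% = untreated-like growth.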

Cc1cccc(N(C)C(=O)C2C(O)CCN2c2nc(C)cc(C(F)(F)F)c2C#N)c1 (centres undefined) + CN(C)c1ccc(Nc2c3ccc(NC(=O)CCN4CCCC4)cc3nc3cc(NC(=O)CCN4CCCC4)ccc23)cc1 was tested, and the IC50 (second compound 0.0316 µM) was > 10 µM, the IC50 (second compound 0.1 µM) was > 10 µM and the IC50 (second compound 0.316 µM) was > 10 µM. For the same molecule, the IC50 (second compound 1 µM) was > 10 µM, the IC50 (second compound 3.16 µM) was > 10 µM and the IC50 (second compound 10 µM) was > 10 µM. The viability, T/C [1] was 110%, the viability, T/C (second compound 0.0316 µM, first compound 0.1 µM) was 104% and the viability, T/C [2] was 93.3%. For the same molecule, the viability, T/C (second compound 0.0316 µM, first compound 1 µM) was 98.7%, the viability, T/C (second compound 0.0316 µM, first compound 3.16 µM) was 78.2% and the viability, T/C (second compound 0.0316 µM, first compound 10 µM) was 104%. For the same molecule, the viability, T/C [3] was 105%, the viability, T/C (second compound 0.1 µM, first compound 0.1 µM) was 96.9% and the viability, T/C [4] was 103%. For the same molecule, the viability, T/C (second compound 0.1 µM, first compound 1 µM) was 93.8%, the viability, T/C (second compound 0.1 µM, first compound 3.16 µM) was 96.3% and the viability, T/C (second compound 0.1 µM, first compound 10 µM) was 82.3%. The viability, T/C [5] was 101%, the viability, T/C (second compound 0.316 µM, first compound 0.1 µM) was 103% and the viability, T/C [6] was 84.5%. It also gave a viability, T/C (second compound 0.316 µM, first compound 1 µM) of 106%, a viability, T/C (second compound 0.316 µM, first compound 3.16 µM) of 90.2% and a viability, T/C (second compound 0.316 µM, first compound 10 µM) of 63.8%. For the same molecule, the viability, T/C [7] was 100%, the viability, T/C (second compound 1 µM, first compound 0.1 µM) was 87.5% and the viability, T/C [8] was 90.5%. It also gave a viability, T/C (second compound 1 µM, first compound 1 µM) of 90.1%, a viability, T/C (second compound 1 µM, first compound 3.16 µM) of 94.6% and a viability, T/C (second compound 1 µM, first compound 10 µM) of 88.1%. The viability, T/C [9] was 94.2%, the viability, T/C (second compound 3.16 µM, first compound 0.1 µM) was 96.8% and the viability, T/C [10] was 96.7%. For the same molecule, the viability, T/C (second compound 3.16 µM, first compound 1 µM) was 94.5%, the viability, T/C (second compound 3.16 µM, first compound 3.16 µM) was 128% and the viability, T/C (second compound 3.16 µM, first compound 10 µM) was 109%. For the same molecule, the viability, T/C [11] was 91.8%, the viability, T/C (second compound 10 µM, first compound 0.1 µM) was 97% and the viability, T/C [12] was 110%. The viability, T/C (second compound 10 µM, first compound 1 µM) was 105%, the viability, T/C (second compound 10 µM, first compound 3.16 µM) was 122% and the viability, T/C (second compound 10 µM, first compound 10 µM) was 80%.
Cn1ncnc1[C@H]1c2n[nH]c(=O)c3cc(F)cc(c23)N[C@@H]1c1ccc(F)cc1 + CN(C)c1ccc(Nc2c3ccc(NC(=O)CCN4CCCC4)cc3nc3cc(NC(=O)CCN4CCCC4)ccc23)cc1 was tested, and the IC50 (second compound 0.0316 µM) was > 0.316 µM, the IC50 (second compound 0.1 µM) was > 0.316 µM and the IC50 (second compound 0.316 µM) was > 0.316 µM. For the same molecule, the IC50 (second compound 1 µM) was > 0.316 µM, the IC50 (second compound 3.16 µM) was > 0.316 µM and the IC50 (second compound 10 µM) was > 0.316 µM. The viability, T/C (second compound 0.0316 µM, first compound 0.000999 µM) was 96.8%, the viability, T/C (second compound 0.0316 µM, first compound 0.00316 µM) was 92.6% and the viability, T/C (second compound 0.0316 µM, first compound 0.00999 µM) was 101%. It also gave a viability, T/C [1] of 104%, a viability, T/C (second compound 0.0316 µM, first compound 0.0999 µM) of 112% and a viability, T/C [2] of 110%. For the same molecule, the viability, T/C (second compound 0.1 µM, first compound 0.000999 µM) was 127%, the viability, T/C (second compound 0.1 µM, first compound 0.00316 µM) was 82.7% and the viability, T/C (second compound 0.1 µM, first compound 0.00999 µM) was 88.7%. The viability, T/C [3] was 105%, the viability, T/C (second compound 0.1 µM, first compound 0.0999 µM) was 101% and the viability, T/C [4] was 98.8%. It also gave a viability, T/C (second compound 0.316 µM, first compound 0.000999 µM) of 109%, a viability, T/C (second compound 0.316 µM, first compound 0.00316 µM) of 77.7% and a viability, T/C (second compound 0.316 µM, first compound 0.00999 µM) of 78.9%. The viability, T/C [5] was 89.3%, the viability, T/C (second compound 0.316 µM, first compound 0.0999 µM) was 94.3% and the viability, T/C [6] was 83.3%. It also gave a viability, T/C (second compound 1 µM, first compound 0.000999 µM) of 109%, a viability, T/C (second compound 1 µM, first compound 0.00316 µM) of 108% and a viability, T/C (second compound 1 µM, first compound 0.00999 µM) of 100%. It also gave a viability, T/C [7] of 94.9%, a viability, T/C (second compound 1 µM, first compound 0.0999 µM) of 107% and a viability, T/C [8] of 89.1%. It also gave a viability, T/C (second compound 3.16 µM, first compound 0.000999 µM) of 85.5%, a viability, T/C (second compound 3.16 µM, first compound 0.00316 µM) of 81% and a viability, T/C (second compound 3.16 µM, first compound 0.00999 µM) of 101%. It also gave a viability, T/C [9] of 90.8%, a viability, T/C (second compound 3.16 µM, first compound 0.0999 µM) of 92.8% and a viability, T/C [10] of 102%. The viability, T/C (second compound 10 µM, first compound 0.000999 µM) was 81.4%, the viability, T/C (second compound 10 µM, first compound 0.00316 µM) was 84.8% and the viability, T/C (second compound 10 µM, first compound 0.00999 µM) was 91.6%. The viability, T/C [11] was 106%, the viability, T/C (second compound 10 µM, first compound 0.0999 µM) was 101% and the viability, T/C [12] was 101%.
